How the values were obtained:
[1] = test system: human epidennoid cells, virally infected with HSV-2
[2] = test system: human epidennoid cells, virally infected with HSV-2; details: cited from earlier work
[3] = test system: human epidennoid cells, virally infected with HSV-2; details: cited from earlier work; remark: listed apart in the source

CC(=O)OC[C@]12CCC(C)=C[C@H]1O[C@@H]1[C@H](O)[C@@H](OC(C)=O)[C@@]2(C)[C@]12CO2 [DAS]
Trichothecene in vitro concentration, Cytotoxic Hi [1]: 200 ng/mL | Trichothecene in vitro concentration, Cytotoxic Lo [1]: 6 ng/mL | cell viability [2]: Neither reduced cell viability | Trichothecene in vitro concentration, Inhibitory 80% [3]: 4.0 ng/mL | Trichothecene in vitro concentration, Inhibitory 100% [3]: 5.0 ng/mL

— patent publication US20040039047A1 (priority 1998, published 2004)
